Assay results: patent publication US20260284208A1, “SYSTEM” (Oxford University Innovation Limited, priority 2023, published 2026)

Legend:
Format in all cases: cell-based
[1] = molecular target: IKZF3 130-189aa Q147A N149E Q150V S154K (AEVK) ZF-GFP (Homo sapiens, UniProt Q96SW2+Q9UKT9, N149E/Q147A/Q150V/S154K); experiment: GFP degradation flow cytometry assay, AEVK mutant ZF-eGFP
Protocol: (§1) The following method was used to generate lentiviral vectors for plasmids tested in library hit confirmation experiments: WT, QPIS, ANQS, APIS, HEIP, FEVP, WEIK, FDIP, AEVK, WNQS, WEIS, WNIQ, and WDIA. HEK293T cells were seeded into 6 well TC-treated cell culture dishes (Falcon) at 7×10^5 cells per well and incubated overnight at 37° C. and 5% CO2. […] In a separate tube 2 μL of PEIPro (Polyplus) was added to 100 μL of OptiMEM. The solution containing PEIPro and DNA was mixed and incubated at room temperature for 15 minutes to create the transfection mixture. The transfection mixture was added to cells and incubated for 5-6 hours at 37° C. and 5% CO2. After 2 days, the supernatant was harvested and fresh media was added to cells. 24 hours later, the supernatant was harvested and combined with the first supernatant harvested. Supernatant was centrifuged at 2000×g room temperature for 5 minutes, then the supernatant was filtered through a 0.45 μm cellulose acetate syringe filter and frozen at −80° C. […]
(§2) Jurkat cells were added to 96 well U-bottom assay plates (Falcon) at 1×10^5 cells per well and treated with compounds for 18 hours at 37° C. and 5% CO2. […] Data was analysed using FlowJo 10.8.1 (BD).
(§3) Having assessed the broad trends from this library screen, the sequences with the highest log FC values for A63 and B08 were selected and transduced into separate Jurkat cell lines. […]

[2] = molecular target: AEVK-GFP in transduced Jurkat cells (Homo sapiens, UniProt Q96SW2+Q9UKT9, N149E/Q147A/Q150V/S154K); experiment: Immunoblotting of AEVK ZF-eGFP; conditions: 10 μM; Jurkats transduced with AEVK-GFP
Protocol: Jurkat cells were added to T25 flasks (Falcon) at 2×10^6 cells per flask and were incubated with compounds for 18 hours at 37° C. and 5% CO2. Cells were lysed in buffer containing 9 M urea (Sigma), 75 mM Tris-HCl (Sigma), 0.15 M β-mercaptoethanol (Merck) and 10× diluted protease inhibitor cocktail (Merck). Cells lysates were sonicated for 10 seconds 3 times, centrifuged at 13000 rpm for 10 minutes at 4° C. and the supernatants were transferred into fresh tubes. Protein concentrations were measured using a Pierce BCA Protein Assay Kit (Thermo). Proteins were boiled in Laemmli sample buffer (Bio-Rad) for 5 minutes at 100° C. and separated by SDS-PAGE (7.5% Mini-PROTEAN TGX gels, Bio-Rad) and compared to the PageRuler Prestained Protein Ladder (Thermo). Semi-dry blotting was done on a Trans-Blot Turbo Transfer System (Bio-Rad) with the Trans-Blot Turbo RTA Mini 0.2 μm PVDF Transfer Kit (Bio-Rad) using the default mixed molecular weight mode. […] Membranes were scanned with a Bio-Rad ChemiDoc XRS+ Imaging System (Bio-Rad) and signal intensities were quantified using Image Lab software (Bio Rad). Band densitometry was assessed, normalized to vinculin bands, and reported as percentage of the DMSO control lane.

[3] = molecular target: IKZF3 130-189aa Q147W N149E Q150I (WEIS) ZF-GFP (Homo sapiens, UniProt Q96SW2+Q9UKT9, N149E/Q147W/Q150I); experiment: GFP degradation flow cytometry assay, WEIS mutant ZF-eGFP
Protocol: as §1, §2, §3

[4] = from pDC50 values, 12 concentrations 5 nM-10 μM

IKZF3 130-189aa Q147W N149E Q150I (WEIS) ZF-GFP, sequence (Q9UKT9 130-189 Q147W/N149E/Q150I): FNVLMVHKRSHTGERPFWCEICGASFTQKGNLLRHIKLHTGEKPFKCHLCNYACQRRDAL
IKZF3 130-189aa Q147W N149E Q150I (WEIS) ZF-GFP, sequence (Q96SW2 whole entry): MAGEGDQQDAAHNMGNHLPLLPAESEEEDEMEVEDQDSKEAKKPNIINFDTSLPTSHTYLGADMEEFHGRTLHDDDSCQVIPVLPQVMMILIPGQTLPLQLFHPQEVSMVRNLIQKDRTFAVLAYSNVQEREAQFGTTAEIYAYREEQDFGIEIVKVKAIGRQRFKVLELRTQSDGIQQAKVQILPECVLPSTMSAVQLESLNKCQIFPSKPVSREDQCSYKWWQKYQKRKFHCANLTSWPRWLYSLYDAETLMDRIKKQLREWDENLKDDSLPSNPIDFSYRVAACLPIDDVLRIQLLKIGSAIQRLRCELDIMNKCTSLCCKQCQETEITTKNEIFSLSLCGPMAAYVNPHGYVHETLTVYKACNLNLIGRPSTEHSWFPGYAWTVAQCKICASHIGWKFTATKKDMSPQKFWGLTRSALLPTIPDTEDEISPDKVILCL
IKZF3 130-189aa Q147A N149E Q150V S154K (AEVK) ZF-GFP, sequence (Q9UKT9 130-189 Q147A/N149E/Q150V/S154K): as the sequence (Q9UKT9 130-189 Q147W/N149E/Q150I) above, with W18A, I21V, S25K counted along it
IKZF3 130-189aa Q147A N149E Q150V S154K (AEVK) ZF-GFP, sequence (Q96SW2 whole entry): as the sequence (Q96SW2 whole entry) above
AEVK-GFP in transduced Jurkat cells, sequence (Q9UKT9 130-189 Q147A/N149E/Q150V/S154K): as the sequence (Q9UKT9 130-189 Q147W/N149E/Q150I) above, with W18A, I21V, S25K counted along it
AEVK-GFP in transduced Jurkat cells, sequence (Q96SW2 whole entry): as the sequence (Q96SW2 whole entry) above

Structure (SMILES)	percent degradation of ZF-GFP reporter at up to 10 µM ([1]; 18 h, 10 μM, Jurkat, flow cytometry concentration curve, read-out: degradation of the top mutant ZF-GFP (AEVK))	selectivity compared to the WT ZF (AEVK) [1, 4]	degradation of AEVK-GFP (Western blot) [2]	inhibition at up to 10 µM ([3]; 18 h, 10 μM, Jurkat, flow cytometry concentration curve, read-out: degradation of the top mutant ZF-GFP (WEIS))	selectivity compared to the WT ZF (WEIS) [3, 4]
CC(C)(C)c1ccc2c(c1)C(=O)N(C1CCC(=O)NC1=O)C2=O (centres unmarked) [A63, 5-(tert-butyl)-2-(2,6-dioxopiperidin-3-yl)isoindoline-1,3-dione]	~100%	around 30 ×	full degradation		
CN1CCN(c2ccc3c(c2)C(=O)N(C2CCC(=O)NC2=O)C3=O)CC1 (centres unmarked) [B08, 2-(2,6-dioxopiperidin-3-yl)-5-(4-methylpiperazin-1-yl)isoindoline-1,3-dione]				~100%	around 30 ×
